Test results taken from patent publication US20250161278A1, “CBL-B INHIBITOR, COMPOSITIONS COMPRISING A CBL-B INHIBITOR IN A METHOD OF TREATING A DISEASE ASSOCIATED WITH CELL PROLIFERATION” (HOTSPOT THERAPEUTICS, INC., priority 2022, published 2025).

Legend:
H22 tumor cells = test: Subcutaneous H22 murine liver cancer model, tumor growth inhibition; assay type: in vivo, mouse; conditions: for TGI (%): H22 s.c., female BALB/c mice
Method: The objective of this pharmacology study was to evaluate the anti-tumor growth efficacy of Compound 85 in the treatment of the subcutaneous H22 murine liver cancer model in female BALB/c mice. Compound 85 test particles were delivered via PO when the average tumor volume reached approximately 80 mm^3. […] Tumor volumes and body weight were measured three times per week after the initiation of treatment.
The H22 tumor cells were maintained in vitro with RPMI-1640 medium supplemented with 10% fetal bovine serum at 37° C. in an atmosphere of 5% CO2. Cells in the exponential growth phase were harvested and quantified by cell counter before tumor inoculation.
Each mouse was inoculated subcutaneously in the right front flank region with H22 tumor cells (1×10e6) in 0.1 ml of PBS for tumor development.
The randomization started when the mean tumor size reaches approximately 79.89 mm^A3. […] Randomization was performed based on “Matched distribution” method/“Stratified” method (Study Director™ software, version 3.1.399.19)/randomized block design. The date of randomization was denoted as day 0.
(§1) After tumor inoculation, the animals were checked daily for morbidity and mortality. During routine monitoring, the animals were checked for any effects of tumor growth and treatments on behavior such as mobility, food and water consumption, body weight gain/loss (Body weights were measured thrice per week after randomization), eye/hair matting and any other abnormalities. Mortality and observed clinical signs were recorded for individual animals in detail.
(§2) Tumor volumes were measured three times per week after randomization in two dimensions using a caliper, and the volume was expressed in mm3 using the formula: V=(L×W×W)/2, where V is tumor volume, L is tumor length (the longest tumor dimension) and W is tumor width (the longest tumor dimension perpendicular to L). Dosing, as well as tumor and body weight measurements, were conducted in a Laminar Flow Cabinet.
Tumor growth inhibition (TGI): TGI % is an indication of antitumor activity, expressed as: TGI (%)=100×(1−T/C). T and C are the mean tumor volume (or weight) of the treated and control groups on a given day.
The treatment was performed for 21 days and the study was terminated on day 20 post dosing initiation.

CT26 tumor cells [1] = test: Subcutaneous CT26 murine colorectal cancer model (Example 5), tumor growth inhibition; assay type: in vivo, mouse; conditions: CT26 s.c., female BALB/c mice
Method: (§3) The objective of this study was to evaluate the in vivo anti-tumor efficacy of Compound 85 in the subcutaneous CT26 murine colorectal cancer model in female BALB/c mice. Compound 85 test particle was delivered via PO when tumors reached 80 mm^3. The compound was assessed at six different dose levels (3 mpk, l0 mpk, 30 mpk for BID and 6 mpk, 20 mpk and 60 mpk for QD). Tumor volumes and body weight were measured twice per week after the initiation of treatment. Compound 85 level was assessed in the plasma and tumor at the end of the study.
The CT26 tumor cells were maintained in vitro with RPMI-1640 medium supplemented with 10% fetal bovine serum at 37° C. in an atmosphere of 5% CO2. The cells in exponential growth phase were harvested and quantitated by cell counter before tumor inoculation.
Each mouse was inoculated subcutaneously in the right lower flank region with CT26 tumor cells (5×10^5) in 0.1 ml of PBS.
The randomization started when the mean tumor size reaches approximately 80.7 mm^3. In total, 80 mice were enrolled in the study and randomly allocated into 8 study groups, with 10 mice per group. Randomization was performed based on the “Matched distribution” method (Study Director™ software, version 3.1.399.19). The date of randomization was denoted as day 0.
as §1, with “weights would be” for “weights were”, “measured twice” for “measured thrice”
as §2, with “twice” for “three times”, “Dosing” for “Dosing,”, “measurements” for “measurements,”

CT26 tumor cells [2] = test: Subcutaneous CT26 murine colorectal cancer model (Example 6), tumor growth inhibition; assay type: in vivo, mouse; conditions: day 13, CT26 s.c., female BALB/c mice
Method: The objective of this study was to evaluate preclinically the in vivo dose of test compounds in the treatment of the subcutaneous CT26 murine colorectal cancer model in female BALB/c mice.
The CT26 tumor cells were maintained in vitro with RPMI-1640 medium supplemented with 10% fetal bovine serum at 37° C. in an atmosphere of 5% CO2 in air. The cells in exponential growth phase was harvested and quantitated by cell counter before tumor inoculation.
Each mouse was inoculated subcutaneously in the right lower flank region with CT26 tumor cells (5×10^5) in 0.1 ml of PBS for tumor development.
The randomization started when the mean tumor size reaches approximately 89.91 mm^3. Totally 80 mice were enrolled in the study and randomly allocated to 8 study groups, with 10 mice per group. Randomization was performed based on “Matched distribution” method (Study Director™ software, version 3.1.399.19). The date of randomization was denoted as day 0 (Jul. 8, 2021).
as §1, with “weights would be” for “weights were”, “measured twice” for “measured thrice”
as §2, with “twice” for “three times”, “Dosing” for “Dosing,”, “measurements” for “measurements,”
Tumor growth inhibition (TGI): TGI % is an indication of antitumor activity, and expressed as: TGI (%)=100×(1−T/C). T and C are the mean tumor volume (or weight) of the treated and control groups, respectively, on a given day.
The treatment was performed for 14 days. There was no extension of the treatment, the study was terminated on Day 13 post dosing initiation.
To compare tumor volumes of different groups at a pre-specified day, Bartlett's test was used to check the assumption of homogeneity of variance across all groups. When the p-value of Bartlett's test was >=0.05, we ran one-way ANOVA to test overall equality of means across all groups. If the p-value of the one-way ANOVA was <0.05, post hoc testing was performed by running Tukey's HSD (honest significant difference) tests for all pairwise comparisons, and Dunnett's tests for comparing each treatment group with the vehicle group. […]

[3] = Body weight and mortality monitoring in CT26 model (Example 5); assay type: in vivo
Method: as §3
as §1, with “weights would be” for “weights were”, “measured twice” for “measured thrice”
The body weights and tumor volumes were measured by using Study Director™ software (version 3.1.399.19).

Row | Structure (SMILES) | TGI (%) (H22 tumor cells; 2 mpk QD p.o.) | TGI (%) (H22 tumor cells; 10 mpk QD p.o.) | TGI (%) (H22 tumor cells; 20 mpk QD p.o.) | TGI (%) (H22 tumor cells; 40 mpk QD p.o.) | minimal efficacious dose (lowest dose showing significant tumor inhibition) (H22 tumor cells; QD p.o., single agent) [mpk] | maximum TGI (H22 tumor cells; high doses, 20 mpk or 40 mpk QD) [%] | TGI(%) on Day 18 (CT26 tumor cells [1]; 3 mpk BID p.o.) [%] | TGI(%) on Day 18 (CT26 tumor cells [1]; 6 mpk QD p.o.) [%] | TGI(%) on Day 18 (CT26 tumor cells [1]; 10 mpk BID p.o.) [%] | TGI(%) on Day 18 (CT26 tumor cells [1]; 20 mpk QD p.o.) [%] | TGI(%) on Day 18 (CT26 tumor cells [1]; 30 mpk BID p.o.) [%] | TGI(%) on Day 18 (CT26 tumor cells [1]; 60 mpk QD p.o.) [%] | TGI (%) (CT26 tumor cells [2]; 30 mg/kg BID p.o.) | loss of average body weight ([3]; day 3, 30 mpk BID p.o.) | loss of average body weight ([3]; day 3, 60 mpk QD p.o.) | mortality ([3]; mouse, in vivo) | TGI (%) (H22 tumor cells; 60 mpk BID p.o.) | TGI (%) (CT26 tumor cells [2]; 60 mg/kg BID p.o.) | TGI (%) (CT26 tumor cells [2]; 100 mg/kg BID p.o.)
1 | C[C@H]1CCCN(Cc2cc(C(F)(F)F)c3cn(-c4cncc([C@H](c5nncn5C)C5CCC5)c4)c(=O)n3c2)C1 [Compound 85] | 19.56 | 41.21 | 68.54 | 64.65 | 6 | ~65 | 18.7 | 3.8 | 24.4 | 22.2 | 37.9 | 33.9 | 43.02 | less than 5% | less than 5% | No mortality was reported |  |  | 
2 | C[C@H]1CCCN(Cc2cc(C(F)(F)F)c3cn(-c4cccc(C5(Cc6nncn6C)COC5)c4)c(=O)n3c2)C1 [Compound 29] |  |  |  |  |  |  |  |  |  |  | 17.3 |  | 10.78 |  |  |  | 63.97 | 41.76 | 50.83
